Consider 21 molecules from ChEMBL document CHEMBL4619735, “Design, synthesis and anti-influenza A virus activity of novel 2,4-disubstituted quinazoline derivatives” (Bioorg Med Chem Lett, 2020).

The source made the active and inactive calls. The rule behind the calls is not given here.

What is called IC50 is the point on the concentration scale where inhibition reaches its midpoint.

In test [1] the test system is Influenza A virus. The test is described as follows: Antiviral activity against Influenza A virus A/WSN/33(H1N1) infected in human 293T cells pretreated for 2 hrs followed by viral infection and measured after 24 hrs by Gaussia luciferase reporter gene assay. It counts as functional, organism-based. As to conditions: A/WSN/1933(H1N1), HEK-293T.
The subject of test [2] is Influenza A virus. The test is described as follows: Antiviral activity against Influenza A virus A/WSN/33(H1N1) infected in human 293T cells assessed as inhibition of viral replication at 10 uM pretreated for 2 hrs followed by viral infection and measured after 24 hrs by Gaussia luciferase reporter gene assay. The format is functional, organism-based. The conditions noted are these: A/WSN/1933(H1N1), HEK-293T. Background: In a reporter assay the amount or activity of a reporter protein is the signal.

Test [3] relates to Influenza A virus. Kind of test: Potency index, ratio of ribavirin IC50 to test compound IC50 for antiviral activity against Influenza A virus A/WSN/33(H1N1) infected in human 293T cells pretreated for 2 hrs followed by viral infection and measured after 24 hrs by Gaussia luciferase reporter gene assay. The format is functional, A/WSN/1933(H1N1), HEK-293T.

In the case of `O=C(NCCOc1nc(N2CCc3ccccc3C2)nc2ccccc12)c1ccccc1`, the IC50 in the test on Influenza A virus [1] was determined as 4.19 µM. Further, the inhibition entry in the test on Influenza A virus [2] was “Active”. For `O=C(NCCOc1nc(N2CCCC2)nc2ccccc12)c1ccc(C(F)(F)F)cc1`, the IC50 in the test with Influenza A virus [1] was determined as 8.64 µM. As for `CCOC(=O)COc1nc(N2CCCC2)nc2ccccc12`, the IC50 in the test on Influenza A virus [1] was 16.6 µM. For the molecule `O=C(COc1nc(N2CCCC2)nc2ccccc12)NC12CC3CC(CC(C3)C1)C2`, the inhibition result in the test on Influenza A virus [2] is “inactive”.

As to `NCCOc1nc(N2CCCC2)nc2ccccc12`, the inhibition result with Influenza A virus [2] is “inactive”. Consider `O=C(COc1nc(N2CCCC2)nc2ccccc12)Nc1nccs1`, for which the IC50 in the test on Influenza A virus [1] was 39.4 µM. Moreover, in the test on Influenza A virus [2], the inhibition result was “Active”. As to `O=C(NCCOc1nc(N2CCCC2)nc2ccccc12)c1cccs1`, the IC50 with Influenza A virus [1] came to 18.2 µM. For the molecule `CCOc1ccccc1CNC(=O)COc1nc(N2CCCC2)nc2ccccc12`, the IC50 with Influenza A virus [1] amounted to 17.7 µM. In addition, the inhibition entry with Influenza A virus [2] was “Active”. Regarding `CC(=O)c1ccc(C(=O)NCCOc2nc(N3CCCC3)nc3ccccc23)cc1`, the inhibition entry with Influenza A virus [2] was “inactive”. As to `O=C(O)COc1nc(N2CCCC2)nc2ccccc12`, the IC50 in the test with Influenza A virus [1] was found to be 60.1 µM. Turning to `O=C(COc1nc(N2CCc3ccccc3C2)nc2ccccc12)NCc1ccccc1`, the IC50 with Influenza A virus [1] was found to be 17.7 µM. As to `O=C(NCCOc1nc(N2CCCC2)nc2ccccc12)C1CCCCC1`, the inhibition result in the test with Influenza A virus [2] was “inactive”. Consider `O=C(COc1nc(N2CCCC2)nc2ccccc12)Nc1ccc2ccccc2c1`, for which the inhibition result in the test on Influenza A virus [2] is “inactive”. Still for that read-out and setting: next, `O=C(NCCOc1nc(N2CCCC2)nc2ccccc12)c1ccccc1`: “Active”. For `O=C(NCCOc1nc(N2CCCC2)nc2ccccc12)C1CC1`, the inhibition entry in the test on Influenza A virus [2] was “Active”. Take `COc1ccc(OC(=O)NCCOc2nc(N3CCCC3)nc3ccccc23)cc1`: the IC50 in the test on Influenza A virus [1] amounted to 55.3 µM.

With `NC(=O)c1ncn([C@@H]2O[C@H](CO)[C@@H](O)[C@H]2O)n1` [RIBAVIRIN], the IC50 in the test on Influenza A virus [1] is 15.4 µM. Consider `O=C(COc1nc(Cl)nc2ccccc12)NCc1ccccc1`, for which, in the test with Influenza A virus [1], the concentration for half-maximal inhibition (IC50) came to 26.5 µM. `CN(C)c1nc(OCC(=O)Nc2ccccc2)c2ccccc2n1`: the IC50 in the test with Influenza A virus [1] is 3.7 µM. Also, the “Ratio IC50” value with Influenza A virus [3] is on record as 4.1. With `O=C(NCCOc1nc(Cl)nc2ccccc12)c1ccccc1`, the IC50 in the test on Influenza A virus [1] came to 48 µM. For `O=C(COc1nc(N2CCCC2)nc2ccccc12)NC1CC1`, the inhibition result in the test with Influenza A virus [2] is “inactive”.
